Data reported in patent publication US9854801B2, “Weed control from applications of an ethylene inhibitor and a pyridine carboxylic acid herbicide” (Dow AgroSciences LLC, priority 2015, dated 2018).
Where “and” joins values, the source holds several entries; their conditions need not be identical. Equal values may be shown once.

Tests used:
Format in all cases: in vivo
Settings in all cases: 20-21 days after application
[1] = test system: junglerice, Echinochloa colonum (L.) LINK (ECHCO); assay: Foliar-applied greenhouse weed control, junglerice (ECHCO)
Method: (§1) The soil matrix was contained in plastic pots with a volume of 1 quart and a surface area of 83.6 cm^2. When required, to ensure good germination and healthy plants, a fungicide treatment and/or other chemical or physical treatment was applied. The plants were grown for 10-22 days in a greenhouse with an approximate 14 h photoperiod which was maintained at about 29° C. during the day and 26° C. during the night. Nutrients (Peters Excel® 15-5-15 5-Ca 2-Mg and iron chelate) were applied in the irrigation solution as needed and water was added on a regular basis. Supplemental lighting was provided with overhead metal halide 1000-Watt lamps as necessary. The plants were employed for testing when they reached the second or third true leaf stage. […] The compounds were applied on an active ingredient basis. […] All stock solutions and applications solutions were visually inspected for compound compatibility prior to application. […] Control plants were sprayed in the same manner with the solvent blank. The treated plants and control plants were placed in a greenhouse as described above and watered by sub-irrigation to prevent wash-off of the test compounds. […] Colby's equation was used to determine the herbicidal effects expected from the mixtures. The combinations tested, ratios employed, plant species tested, and results are included in Table 1 below.

[2] = test system: barnyard grass, Echinochloa crus-galli (L.) P. Beauv. (ECHCG); assay: Foliar-applied greenhouse weed control, barnyard grass (ECHCG)
Method: as §1

[3] = test system: yellow nutsedge, Cyperus esculentus L. (CYPES); assay: Foliar-applied greenhouse weed control, yellow nutsedge (CYPES)
Method: as §1

[4] = test system: large crabgrass, Digitaria sanguinalis (L.) Scop. (DIGSA); assay: Foliar-applied greenhouse weed control, large crabgrass (DIGSA)
Method: as §1

[5] = test system: ivyleaf morning glory, Ipomoea hederacea (L.) Jacq. (IPOHE); assay: Foliar-applied greenhouse weed control, ivyleaf morning glory (IPOHE)
Method: as §1

## CC1=CC1 [1-methylcyclopropene, reference compound]
[1]; 2 g ai/ha alone
  1-methylcyclopropene % Visual Weed Control: 0%
[1]; 4 g ai/ha alone
  1-methylcyclopropene % Visual Weed Control: 0%
[2]; 2 g ai/ha alone
  1-methylcyclopropene % Visual Weed Control: 0%
[2]; 4 g ai/ha alone
  1-methylcyclopropene % Visual Weed Control: 0%
[2]; 5 g ai/ha alone
  1-methylcyclopropene % Visual Weed Control: 0%
[2]; 10 g ai/ha alone
  1-methylcyclopropene % Visual Weed Control: 0%
[2]; 20 g ai/ha alone
  1-methylcyclopropene % Visual Weed Control: 0%
[3]; 5 g ai/ha alone
  1-methylcyclopropene % Visual Weed Control: 0%
[4]; 2 g ai/ha alone
  1-methylcyclopropene % Visual Weed Control: 0%
[4]; 4 g ai/ha alone
  1-methylcyclopropene % Visual Weed Control: 0%
[4]; 5 g ai/ha alone
  1-methylcyclopropene % Visual Weed Control: 0%
[4]; 10 g ai/ha alone
  1-methylcyclopropene % Visual Weed Control: 0%
[4]; 20 g ai/ha alone
  1-methylcyclopropene % Visual Weed Control: 0%
[5]; 2 g ai/ha alone
  1-methylcyclopropene % Visual Weed Control: 0%
[5]; 4 g ai/ha alone
  1-methylcyclopropene % Visual Weed Control: 0%
[5]; 5 g ai/ha alone
  1-methylcyclopropene % Visual Weed Control: 0%
[5]; 10 g ai/ha alone
  1-methylcyclopropene % Visual Weed Control: 0%

## COc1c(Cl)ccc(-c2nc(C(=O)OCc3ccccc3)c(Cl)c(N)c2F)c1F [Formula (II) benzyl ester, benzyl ester of 4-amino-3-chloro-5-fluoro-6-(4-chloro-2-fluoro-3-methoxy-phenyl) pyridine-2-carboxylic acid]
[1]; 8 g ai/ha alone
  Formula (II) benzyl ester % Visual Weed Control: 50%
[1]; 16 g ai/ha alone
  Formula (II) benzyl ester % Visual Weed Control: 50%
[1]; 32 g ai/ha alone
  Formula (II) benzyl ester % Visual Weed Control: 80%
[2]; 8 g ai/ha alone
  Formula (II) benzyl ester % Visual Weed Control: 40% and 63%
[2]; 16 g ai/ha alone
  Formula (II) benzyl ester % Visual Weed Control: 63% and 78%
[2]; 32 g ai/ha alone
  Formula (II) benzyl ester % Visual Weed Control: 83% and 90%
[3]; 8 g ai/ha alone
  Formula (II) benzyl ester % Visual Weed Control: 70%
[3]; 16 g ai/ha alone
  Formula (II) benzyl ester % Visual Weed Control: 88%
[3]; 32 g ai/ha alone
  Formula (II) benzyl ester % Visual Weed Control: 73%
[4]; 8 g ai/ha alone
  Formula (II) benzyl ester % Visual Weed Control: 13% and 20%
[4]; 16 g ai/ha alone
  Formula (II) benzyl ester % Visual Weed Control: 23% and 28%
[4]; 32 g ai/ha alone
  Formula (II) benzyl ester % Visual Weed Control: 30% and 33%
[5]; 16 g ai/ha alone
  Formula (II) benzyl ester % Visual Weed Control: 18% and 25%
[5]; 32 g ai/ha alone
  Formula (II) benzyl ester % Visual Weed Control: 35% and 48%
